# Measured values reported in patent US10071112B2, “Vitamin E-nucleoside prodrugs” (EPIGENETICS PHARMA LLC, priority 2014, dated 2018).
# Where a name gives a salt, the structure may show the parent alone. Read-outs that look alike come from different tables or passages of the source.
# Experiments:
# [1] = blank human plasma matrix, room temperature, at least 4 hours; cited from earlier work
# MDA-MB-231 = test: In vitro cytotoxicity / growth inhibition, SRB assay, 72 hr, breast cancer cells; type: cell-based; settings: for IC50: Table 2; for GI50: 72 hr
# Description: (§1) In general, growth inhibitory effects of gemcitabine and prodrugs were evaluated in breast (MDA), lung (H460) and colon (H116) cancer cell lines by seeding the cell lines in 96-wells plates and exposing the cells to various drug concentrations for 72 hr. Standard sulforhodamine B (SRB) assay was then performed.
# NCI-H460 = test: In vitro cytotoxicity / growth inhibition, SRB assay, 72 hr, non-small cell lung cancer cells; type: cell-based; settings: for IC50: Table 2; for GI50: 72 hr
# Description: as §1
# HCT-116 = test: In vitro cytotoxicity / growth inhibition, SRB assay, 72 hr, colon cancer cells; type: cell-based; settings: for IC50: Table 2, HCT-116; for GI50: 72 hr
# Description: as §1
# CEM WT = test: Activity in wild type leukemic CEM cells; type: cell-based; settings: for IC50: Homo sapiens, CCRF-CEM, CEM WT (dCK wild type) cells
# Description: (§2) To further confirm that tocopherol/tocotrienol-modified drugs are imported as intact molecules and then dissociate intracellularly into monophosphorylated nucleoside and carrier, i.e., tocopherol/tocotrienol, Compound 2 was tested for activity against gemcitabine in wild type (WT) leukemic CEM cells and CEM cells without deoxycytidine kinase (dCK). In the absence of dCK, gemcitabine is not phosphorylated to gemcitabine monophosphate a precursor to the therapeutically active di- and triphosphates.
# CEM dCK(—) = test: Activity in CEM cells without deoxycytidine kinase; type: cell-based; settings: for increase of IC50 from dCK WT cells to dCK (−) cells: CEM dCK(−) vs CEM WT; for IC50: Homo sapiens, CCRF-CEM, CEM dCK(—) cells
# Description: as §2
# [2] = Aqueous solubility determination; type: physicochemical
# Description: In addition, chromatographic purity (%) was defined as the peak area of the principal peak relative to the total integrated peak area in the HPLC chromatogram of the calibration standard. A chromatogram of the calibration standard of each test compound, along with a UV/VIS spectrum with labeled absorbance maxima, was generated.
# [3] = Intrinsic clearance / metabolic stability in liver microsomes; type: in vitro ADME; settings: human liver microsomes
# Description: Metabolic stability, expressed as percent of the parent compound remaining, was calculated by comparing the peak area of the compound at the time point relative to that at time-0. The half-life (T1/2) was estimated from the slope of the initial linear range of the logarithmic curve of compound remaining (%) vs. time, assuming the first-order kinetics. The apparent intrinsic clearance (CLint, in μL/min/pmol, μL/min/mg or μL/min/Mcell) was calculated according to the following formula: CLint=[…](mg protein/μL or million cells/μL or pmol CYP isozyme/μL)
# pancreatic cancer = settings: clinical trials, patients with pancreatic cancer; cited from earlier work
# [4] = Homo sapiens, MDA-MB-231, absence of dipyridamole (control), read-out: GI50 SRB, MDA Breast
# [5] = Homo sapiens, MDA-MB-231, presence of 1 μM dipyridamole, read-out: GI50 SRB, MDA Breast, dipyridamole
# [6] = Homo sapiens, NCI-H460, absence of dipyridamole (control), read-out: GI50 SRB, H460 Lung
# [7] = Homo sapiens, NCI-H460, presence of 1 μM dipyridamole, read-out: GI50 SRB, H460 Lung, dipyridamole
# [8] = Homo sapiens, absence of dipyridamole (control), read-out: GI50 SRB, H116 Colon
# [9] = Homo sapiens, presence of 1 μM dipyridamole, read-out: GI50 SRB, H116 Colon, dipyridamole
compound,measurement,setting,value
CCCCCCCC/C=C/CCCCCCCC(=O)OC[C@H]1O[C@@H](n2cnc(N)nc2=O)[C@H](O)[C@@H]1O [5-azacytidine elaidic acid ester],percent of the initial amount remaining,[1],94%
"Cc1c(C)c2c(c(C)c1OP(=O)(O)OC[C@H]1O[C@@H](n3ccc(N)nc3=O)C(F)(F)[C@@H]1O)CC[C@@](C)(CCC[C@H](C)CCC[C@H](C)CCCC(C)C)O2 [Compound 1, D-α-tocopheryl phosphate-5′-gemcitabine, triethylammonium salt]",IC50,"MDA-MB-231; Homo sapiens, MDA-MB-231",22.7 µM
same,IC50,"NCI-H460; Homo sapiens, NCI-H460",23.8 µM
same,IC50,HCT-116; Homo sapiens,26.1 µM
"Cc1cc(OP(=O)(O)OC[C@H]2O[C@@H](n3ccc(N)nc3=O)C(F)(F)C2O)cc2c1O[C@](C)(CCC[C@H](C)CCC[C@H](C)CCCC(C)C)CC2 (stereo partly drawn) [Compound 2, D-δ-tocopheryl phosphate-5′-gemcitabine, triethylammonium salt]",GI50,MDA-MB-231; [4],17.2 µM
same,GI50,MDA-MB-231; [5],23.3 µM
same,IC50,"MDA-MB-231; Homo sapiens, MDA-MB-231",5.08 µM
same,GI50,NCI-H460; [6],2.14 µM
same,GI50,NCI-H460; [7],1.47 µM
same,IC50,"NCI-H460; Homo sapiens, NCI-H460",1.69 µM
same,IC50,HCT-116; Homo sapiens,3.67 µM
same,GI50,HCT-116; [8],3.07 µM
same,GI50,HCT-116; [9],6.74 µM
same,IC50,CEM WT,0.59 µM
same,increase of IC50 from dCK WT cells to dCK (−) cells,CEM dCK(—),32.5 fold
same,IC50,CEM dCK(—),19.2 µM
same,fold by which IC50 of Compound 2 was lower than gemcitabine,CEM dCK(—); dCK (−) cells,6.5 fold
same,solubility,"[2]; PBS buffer, aqueous buffer, PBS (pH 7.4), read-out: aqueous solubility in PBS",> 10000 µg/mL
same,solubility,"[2]; simulated intestinal fluid, fassgf or other biorelevant, read-out: aqueous solubility in simulated intestinal fluid",> 200 µM
same,intrinsic clearance half-life,[3],greater than 60 minutes
"CC(C)=CCC/C(C)=C/CC/C(C)=C/CCC1(C)CCc2cc(OP(=O)(O)OC[C@H]3O[C@@H](n4ccc(N)nc4=O)C(F)(F)[C@@H]3O)c(C)c(C)c2O1 (stereo partly drawn) [Compound 3, D-γ-tocotrienyl phosphate-5′-gemcitabine, triethylammonium salt]",IC50,MDA-MB-231; MDA-MB-231,4.9 µM
same,GI50,"MDA-MB-231; absence of dipyridamole (control), read-out: GI50 SRB, MDA Breast",30.3 µM
same,GI50,"MDA-MB-231; presence of 1 μM dipyridamole, read-out: GI50 SRB, MDA Breast, dipyridamole",27.8 µM
same,IC50,NCI-H460; NCI-H460,4.75 µM
same,GI50,"NCI-H460; absence of dipyridamole (control), read-out: GI50 SRB, H460 Lung",7.16 µM
same,GI50,"NCI-H460; presence of 1 μM dipyridamole, read-out: GI50 SRB, H460 Lung, dipyridamole",16 µM
same,IC50,HCT-116,4.01 µM
same,GI50,"HCT-116; absence of dipyridamole (control), read-out: GI50 SRB, H116 Colon",5.55 µM
same,GI50,"HCT-116; presence of 1 μM dipyridamole, read-out: GI50 SRB, H116 Colon, dipyridamole",12.6 µM
"Nc1ccn([C@@H]2O[C@H](CO)[C@@H](O)C2(F)F)c(=O)n1 [Gemcitabine, reference compound]",GI50,MDA-MB-231; [4],3.08 µM
same,GI50,MDA-MB-231; [5],56.8 µM
same,IC50,"MDA-MB-231; Homo sapiens, MDA-MB-231",0.11 µM
same,GI50,NCI-H460; [6],0.02 µM
same,GI50,NCI-H460; [7],0.82 µM
same,IC50,"NCI-H460; Homo sapiens, NCI-H460",0.02 µM
same,IC50,HCT-116; Homo sapiens,0.01 µM
same,GI50,HCT-116; [8],0.03 µM
same,GI50,HCT-116; [9],2.39 µM
same,IC50,CEM WT,0.002 µM
same,fold by which IC50 of gemcitabine was lower than Compound 2,CEM WT; dCK WT cells,295 fold
same,increase of IC50 from dCK WT cells to dCK (−) cells,CEM dCK(—),"62,250 fold"
same,IC50,CEM dCK(—),124 µM
CCCCCCCC/C=C/CCCCCCCC(=O)OC[C@H]1O[C@@H](n2ccc(N)nc2=O)C(F)(F)[C@@H]1O [elaidic acid prodrug],survival versus gemcitabine,pancreatic cancer,did not show any difference in survival
"CC(C)=CCC/C(C)=C/CC/C(C)=C/CCC1(C)CCc2cc(OP(=O)(O)O)c(C)c(C)c2O1 (stereo not shown) [γ-tocotrienyl phosphate, reference compound]",IC50,MDA-MB-231; MDA-MB-231,26.4 µM
same,IC50,NCI-H460; NCI-H460,69.1 µM
same,IC50,HCT-116,55.7 µM
α-tocopheryl phosphate [reference compound],IC50,MDA-MB-231; MDA-MB-231,23.4 µM
same,IC50,NCI-H460; NCI-H460,52.2 µM
same,IC50,HCT-116,46.9 µM
δ-tocopheryl phosphate [reference compound],IC50,MDA-MB-231; MDA-MB-231,29.6 µM
same,IC50,NCI-H460; NCI-H460,69.7 µM
same,IC50,HCT-116,70.6 µM
